Reference: patent US9314510B2, “Human laminin α2 chain LG3 domain and active peptides promoting cell adhesion, spreading, migration, and neurite outgrowth” (SNU R&DB Foundation, priority 2011, dated 2016)
Ends that are not written are not given here.

Key:
PC12 cells [1] = test: Summary of cell adhesion, spreading, migration and neurite outgrowth promotive effects; format: cell-based, rat; conditions: summary statement of the description
Protocol: (§1) To measure cell adhesion, spreading, migration, and neurite outgrowth promotive activities of PC12 cells using the prepared synthetic peptides that are N- and C-terminal truncated or C-terminal added peptides of the Ln2-LG3-P2 peptide, peptides described in Table 1 were coated onto plates at 62.5 μg/mL and PC12 cells were seeded thereon.

PC12 cells [2] = test: Effect of calphostin C pretreatment on cell adhesion; format: cell-based, rat; conditions: PC12 cells, 0.05, 0.1, 0.5 μM, 15 min; 1 h
Protocol: PC12 cells were pretreated with 0.05 μM, 0.1 μM, and 0.5 μM of calphostin C for 15 min at 37° C. and then incubated on plates coated with rLG3 or the Ln2-LG3-P2 peptide for 1 h.

PC12 cells [3] = conditions: at the indicated concentrations and duration of treatment
PC12 cells [4] = test: Cell adhesion assay on coated plates (crystal violet, absorbance 570 nm); format: cell-based, rat
Protocol: The cell adhesion assay was performed as described in a paper published previously by the present inventors (Kim, J. M., et al, Exp. Cell Res, 2005).
Specifically, 24-well culture plates (Nunc, Denmark) were coated with 5 μg/mL human placental laminin (Sigma-Aldrich, St. Louis, Mo.) or 25 μg/mL rLG domain proteins for 12 h at 4° C. The peptides were also coated on the plates by drying for 12 h at room temperature. The substrate-coated plates were blocked with 1% heat-inactivated bovine serum albumin (BSA) in PBS for 1 h at 37° C. and then washed with PBS.
The cells were trypsinized with trypsin/EDTA and resuspended in serum-free culture medium. The cells were added at a density of 2×10^5 cells/500 μL to each plate and incubated in serum-free culture medium for 1 h at 37° C. After incubation, unattached cells were removed by rinsing twice with PBS. The attached cells were fixed with 10% formalin for 15 min and then stained with 0.5% crystal violet for 1 h. Plates were gently washed with distilled water three times and dissolved with 2% SDS for 5 min. Absorbance was measured at 570 nm using a microplate reader (BioRad).
First, PC12 cells were cultured on plates coated with varying amounts of five kinds of Ln2-PG3 peptides and then cell adhesion was observed. The peptides were coated in concentrations ranging from 0 to 125 μg/mL on plates by drying them for 12 h at room temperature.
(§2) The present inventors compared the cellular activities of Ln2-LG3-P2 peptide to scrambled peptide (SEQ ID NO:20, NWEIRCIPGNPF) of Ln2-LG3-P2 peptide and Ln2-LG3-P1 peptide to Ln2-LG3-P5 peptide at a concentration of 62.5 μg/mL where the cell adhesion activity was the maximum. […] PC12 cells were cultured on plates which were coated in the same way for 3 h in serum-free medium and the cell spreading was observed.
(§3) Specifically, to observe cell adhesion, spreading, migration, and neurite outgrowth promotion, the methods described in Experimental examples <2-1> to <2-3> were used and PC12 cells were cultured on plates coated with laminin (5 μg/mL), rLG3 (25 μg/mL), and rLG3-M1 (25 μg/mL) and observed. To observe cell adhesion, PC12 cells were incubated on the coated plates for 1 h and to observe cell spreading, PC12 cells were incubated on the coated plates for 3 h. To observe cell migration, PC12 cells were incubated on the coated plates for […].
as §1

PC12 cells [5] = test: Cell migration assay (transwell migration chambers); format: cell-based, rat; conditions: transwell filters coated with laminin 5 μg/mL, rLG proteins 25 μg/mL or peptides 62.5 μg/mL, 24 h
Protocol: Cell migration assays were performed using transwell migration chambers of 8 μm in pore size (Corning Inc., NY) as described in a paper published previously by the present inventors (Kim, J. M., Min, S. K., Kim, H., Kang, H. K., Jung, S. Y., Lee, S. H., Choi, Y., Roh, S., Jeong, D., and Min, B. M. (2007) Int. J. Mol. Med.).
The lower sides of transwell filters were coated with laminin (5 μg/mL) or rLG proteins (25 μg/mL) for 12 h at 4° C. The lower sides of transwell filters were blocked with 1% BSA in PBS for 1 h at 37° C. Cells were suspended at a density of 4×10^5 cells/mL in RPMI 1640 medium containing 0.5% FBS and 0.1% BSA. 100 μL of this suspension was seeded in the upper chamber of the transwell filter. Cells were allowed to migrate for 24 h at 37° C. and then fixed with 10% formalin for 15 min and stained with 0.5% crystal violet. Non-migrated cells in the upper chamber of transwell filters were removed with a cotton swab, viewed under a light microscope, and counted.
as §3

PC12 cells [6] = test: Neurite outgrowth assay; format: cell-based, rat; conditions: PC12 cells on coated plates, serum-free, 24 h + 72 h
Protocol: Laminin, rLG domain protein, and the peptide were coated onto plates and cells were seeded on the plates in serum-free medium and incubated for 24 h. After changing with serum-free medium again, cells were further cultured for 72 h and neurite outgrowth was examined.

PC12 cells [7] = test: Inhibition of cell adhesion to laminin by rLG3 / rLG3-M1 pretreatment; format: cell-based, rat; conditions: PC12 cells pretreated with 250 μg/mL; laminin 5 μg/mL
Protocol: In addition, PC12 cells were pretreated with rLG3 (250 or 500 μg/mL) or vehicle (phosphate buffer, pH 3.0) for 30 min and then seeded on plates coated with laminin (5 μg/mL) for 30 min in serum-free medium and cell adhesion was observed.

PC12 cells [8] = test: Cell spreading assay on coated plates (cell surface area); format: cell-based, rat; conditions: 3 h, laminin 5 μg/mL, rLG proteins 25 μg/mL, peptides 62.5 μg/mL
Protocol: To determine cell spreading assays, the cells cultured on plates coated with each rLG domain protein for 1 h or 3 h in Experimental example <2-1> were fixed with 10% formalin. Then, the fixed cells were stained with 0.05% crystal violet for 1 h and plates were gently washed with PBS three times. The surface area of cells was measured with Image-Pro plus software (Version 4.5; Media Cybernetics, Silver Spring, Md.).
as §2, §3, §1

PC12 cells [9] = test: Effect of EDTA or MnCl2 pretreatment on cell adhesion and spreading; format: cell-based, rat; conditions: 5 mM EDTA or 1 mM MnCl2, 15 min; for cell adhesion to laminin after pretreatment / cell adhesion to rLG3 or Ln2-LG3-P2 after pretreatment: 1 h; for cell spreading to laminin after pretreatment / cell spreading to rLG3 or Ln2-LG3-P2 after pretreatment: 3 h
Protocol: PC12 cells were pretreated with either 5 mM EDTA or 1 mM MnCl2 for 15 min at 37° C. and seeded on plates coated with rLG3 or the Ln2-LG3-P2 peptide. To measure cell adhesion, PC12 cells were incubated on the coated plates for 1 h and absorbance was measured. To measure cell spreading, PC12 cells were incubated on the coated plates for 3 h and relative cell area was measured using Image-Pro Plus software.

PC12 cells [10] = test: Immunostaining of actin stress fibers and focal adhesions; format: cell-based, rat; conditions: PC12 cells on coated chamber slides, 3 h, serum-free
Protocol: Specifically, for immunostaining, PC12 cells were incubated on Lab-Tek chamber slides (Nalge Nunc International, Rochester, N.Y.) coated with laminin (5 μg/mL), rLG domain proteins (25 μg/mL), or Scrambled peptide (SP) (25 μg/well) in serum-free medium for 3 h at 37° C. Lab-Tek chamber slides were coated with BSA for the control. After rinsing with PBS, PC12 cells were fixed with 3.7% formalin for 20 min and permeabilized with 0.5% Triton X-100 for 5 min. PC12 cells were incubated with primary antibodies for 12 h at 4° C. The primary antibodies used were 1:500 anti-vinculin (Sigma-Aldrich 9131), or 1:300 rhodamin-phalloidin (Invitrogen R154) antibodies. After rinsing with PBS, PC12 cells were immunostained with FITC-conjugated anti-mouse IgG antibody (Jackson ImmunoResearch Laboratories, West Grove, Pa.) or rhodamin-conjugated anti-mouse IgG antibody (Santa Cruz Biotechnology) for 1 h at room temperature. After being washed three times with PBS, the stained PC12 cells were mounted and photographed using a confocal laser scanning microscope (FV300; Olympus, Japan).

PC12 cells [11] = test: Cell adhesion inhibition assay: peptide pretreatment, adhesion to rLG3-coated plates; format: cell-based, rat; conditions: PC12 cells pretreated with 500 μg/mL peptide; rLG3 25 μg/mL
Protocol: Specifically, PC12 cells were pretreated with the Ln2-LG3-P2 peptide in concentrations of 0, 0.2, 0.4, 0.6, 0.8, 1.0, or 1.2 μg/mL for 10 min at room temperature and then cultured on plates coated with rLG3 (25 μg/mL) for 1 h in serum-free medium.
PC12 cells were pretreated with 500 μg/mL of Ln2-LG3-P1, Ln2-LG3-P2, Ln2-LG3-P3, Ln2-LG3-P4, Ln2-LG3-P5 and SP (scramble peptide) (SEQ ID NO:20) for 10 min at room temperature and then cultured on plates coated with rLG3 (25 μg/mL) in serum-free medium. To observe cell adhesion, PC12 cells were incubated on the coated plates for 1 h and to observe cell spreading, PC12 cells were incubated on the coated plates for 3 h. To observe cell migration, cells were seed into the upper chamber of transwell filters coated with rLG3 (25 μg/mL) and cultured for 24 h. Cell migration was quantified by counting the number of cells that had migrated through the filter.
Specifically, PC12 cells were pretreated with Ln2-LG2-P2 (500 μg/mL) and Ln2-LG3-P2A (500 μg/mL) and then, cell adhesion was observed on plates coated with rLG3 (25 μg/mL).

## PPFEGCIWN (PPFEGCIWN-NH2) [Ln2-LG3-P2-DN3, N-terminal truncated Ln2-LG3-P2]
PC12 cells [1]
  cell adhesion, spreading, migration, and neurite outgrowth promotive effects: significantly excellent

## calphostin C
PC12 cells [2]
  cell adhesion activities to laminin, rLG3, and Ln2-LG3-P2 after inhibitor pretreatment: significantly inhibited in a dose-dependent manner
PC12 cells [3]
  cell growth: did not affect cell growth

## rLG3-M1: mutant rLG3 protein, Arg in the Ln2-LG3-P2 site substituted with Ala (ANIPPFEGCIWN) (rLG3-M1)
PC12 cells [4]; PC12 cells on coated plates, 1 h, serum-free, laminin 5 μg/mL, rLG proteins 25 μg/mL, peptides 62.5 μg/mL (0 to 125 μg/mL in FIG. 2B)
  cell adhesion: significantly reduced levels
PC12 cells [5]
  cell migration: significantly reduced levels
PC12 cells [6]
  neurite outgrowth: significantly reduced levels
PC12 cells [7]
  inhibition of cell adhesion to laminin (in words): did not inhibit
PC12 cells [8]
  cell spreading: significantly reduced levels

## PFEGCIWN (PFEGCIWN-NH2) [Ln2-LG3-P2-DN4, N-terminal truncated Ln2-LG3-P2]
PC12 cells [5]
  cell migration: did not show cell migration activity

## O=C(O)CN(CCN(CC(=O)O)CC(=O)O)CC(=O)O [EDTA]
PC12 cells [9]
  cell adhesion to laminin after pretreatment: completely inhibited
  cell adhesion to rLG3 or Ln2-LG3-P2 after pretreatment: partially inhibited
  cell spreading to laminin after pretreatment: completely inhibited
  cell spreading to rLG3 or Ln2-LG3-P2 after pretreatment: partially inhibited

## RNIPPFEGCIWNLVINSVPMDFARPVSFKNADIGRC (RNIPPFEGCIWNLVINSVPMDFARPVSFKNADIGRC-NH2; cysteine pairing not given here) [Ln2-LG3-P2-AC2, C-terminal added Ln2-LG3-P2]
PC12 cells [1]
  cell adhesion, spreading, migration, and neurite outgrowth promotive effects: significantly excellent

## RNIPPFEGCIWNLVINSVPMDFAR (RNIPPFEGCIWNLVINSVPMDFAR-NH2) [Ln2-LG3-P2-AC1, C-terminal added Ln2-LG3-P2]
PC12 cells [1]
  cell adhesion, spreading, migration, and neurite outgrowth promotive effects: significantly excellent

## [Cl][Mn][Cl] [Mn^2+, MnCl2]
PC12 cells [9]
  cell adhesion to laminin after pretreatment: significantly enhanced
  cell adhesion to rLG3 or Ln2-LG3-P2 after pretreatment: significantly enhanced
  cell spreading to laminin after pretreatment: significantly enhanced
  cell spreading to rLG3 or Ln2-LG3-P2 after pretreatment: significantly enhanced

## NWEIRCIPGNPF (NWEIRCIPGNPF-NH2) [scrambled peptide, scrambled peptide of Ln2-LG3-P2 peptide, negative control, reference compound]
PC12 cells [10]
  actin stress fiber formation and focal adhesions: did not organize actin stress fibers
  cell spreading (immunostaining): no effect on spreading
PC12 cells [5]
  cell migration: entirely ineffective
PC12 cells [8]
  cell spreading: entirely ineffective

## Ln2-LG3-P2A: Ln2-LG3-P2 peptide synthesized by substituting Arg with Ala (ANIPPFEGCIWN-NH2)
PC12 cells [4]; PC12 cells on plates coated with peptide (500 μg/mL, FIG. 3H)
  cell adhesion compared to the control group Ln2-LG3-P2: significantly inhibited
PC12 cells [11]
  inhibition of cell adhesion to rLG3 (in words): did not inhibit
